One experiment deals with T1, mouse P2RX7 (mP2RX7) (Mus musculus, UniProt Q9Z1M0).
T1 construct: expressed in transfected cells; host or cells: HEK cells
T1 sequence (Q9Z1M0 1-595): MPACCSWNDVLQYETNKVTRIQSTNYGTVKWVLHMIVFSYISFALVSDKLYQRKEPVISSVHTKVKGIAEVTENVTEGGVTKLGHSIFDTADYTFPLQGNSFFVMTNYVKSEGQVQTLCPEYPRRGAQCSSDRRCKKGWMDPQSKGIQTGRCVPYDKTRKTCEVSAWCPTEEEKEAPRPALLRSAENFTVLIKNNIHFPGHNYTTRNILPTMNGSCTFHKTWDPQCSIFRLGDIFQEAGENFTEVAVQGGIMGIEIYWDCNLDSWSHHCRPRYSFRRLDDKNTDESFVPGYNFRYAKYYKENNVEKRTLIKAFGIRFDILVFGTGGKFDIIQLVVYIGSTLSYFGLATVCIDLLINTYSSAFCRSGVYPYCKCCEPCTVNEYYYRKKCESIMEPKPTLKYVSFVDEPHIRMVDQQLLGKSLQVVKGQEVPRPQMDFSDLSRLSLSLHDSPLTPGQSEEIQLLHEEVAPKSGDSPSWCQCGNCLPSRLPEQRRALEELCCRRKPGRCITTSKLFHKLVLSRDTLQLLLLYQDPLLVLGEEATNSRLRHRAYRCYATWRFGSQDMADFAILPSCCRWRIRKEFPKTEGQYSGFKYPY
The experiment can be described thus: Channel activity (Fluo4-AM) and large pore opening (Topro3) by flow cytometry, HEK cells expressing mP2RX7, 1 h BzATP. In kind it is cell-based. The protocol:
Calcium channel activity (Fluo4AM probe) and large pore opening (Topro3 probe) were analysed by FACS on mP2RX7 HEK cells. Cells were non stimulated (NS) or treated with BzATP (500 μM) alone or in the presence of HEI2314, HEI2328, HEI2333 or HEI2336 (used at 50 μM).
Calcium channel activity (Fluo4AM probe) and large pore opening (Topro3 probe) were analysed by FACS on mock and mP2RX7 HEK cells. Cells were non stimulated (NS) or treated with BzATP (500 μM) alone or in the presence of HEI2328 used at 50 μM.
2.1. […] Cation channel activity is assayed with the Fluo4 AM (Invitrogen) probe and opening of large pore with Topro3 (Invitrogen). In each experiment 2×10^6 cells were incubated with 50 nM Fluo4-AM for 30 minutes. After washing, cells were treated with 500 μM BzATP (3′-O-(4-benzoyl)benzoyl ATP) for 1 h, or non-treated, in presence of the compounds of the invention at 50 μM. When indicated, the Topro3 probe (8.5 nM) was added during the 1 h stimulation time. Fluorescence was assayed by flow cytometry.
Background: A flow cytometer gives signals particle by particle.

In the next experiment the test system is B16-F10 cells. The experiment can be described thus: In vivo assay for immunogenic cell death (ICD), B16-F10. The arrangement: species or system mice. The following applies: B16-F10 exposed to 3 mM ATP and 50 μM HEI3090, contralateral challenge. The protocol:
a-b. In vivo assay for the evaluation of HEI3090 as an inducer of immunogenic cell death.
To induce B16-F10 death, cells were exposed to 3 mM ATP and 50 μM HEI3090 and 1.105 dying cells, or PBS as control, were injected sc in the right flank (n=4). 7 days later, 0.5.105 live B16-F10 cells were injected s.c. in the contralateral flank. (a). Curves shown mean of tumor growth in the contralateral site (b).
The inventors performed dedicated experiment to test the hypothesis that HEI3090 may induce immunogenic cell death (ICD).

For another experiment, the system named is B16F10 cells. The experiment can be described thus: B16F10 cell death (XTT absorbance). In kind it is cell-based, mouse. The following applies: 3 h treatment with BzATP and HEI3090. As to the method:
A. Large pore opening. Dot plot of representative experiment. Numbers highlighted the percentage of positive cells. […] B. representative curve of XTT absorbance over the time. […] Mean±SEM are shown. ***, p<0.001; ****, p<0.0001 Mann-Whitney test.
Of interest, potentiation of large pore opening correlated with increased-B16F10 cell death, as illustrated in FIG. 9. Cells treated during 1 h with BzATP and HEI3090 incorporated 3-fold more Topro3 than cells treated with BzATP only (FIG. 9A). Longer incubation increased cell death, since it was observed up to 80% of dead cells after 3 h treatment (FIG. 9B).

Another experiment concerns LLC. The experiment can be described thus: LLC tumor growth, HEI3090 combined with anti-PD-1 checkpoint inhibitor. In kind it is in vivo, C57BL6J mice. The protocol: b-g Effect of HEI3090 and anti PD-1 checkpoint inhibitor on LLC tumor growth. 5.105 LLC were injected s.c. into the flank of C57BL6J mice. Mice were treated i.p. with vehicle (PBS, 10% DMSO) or with HEI3090 (1.5 mg/kg in PBS, 10% DMSO) from day 1 to day 18. Each mouse received 200 μg of anti PD-1 i.p. at day 4.7.10.13 and 16. Tumor sizes were measured from day 1 to day 90. Mice were sacrificed when tumor reached 100 mm2. For contralateral re-challenge, cured mice or naive age matched C57BL6J mice were injected s.c. in the opposite flank with 2.105 LLC. At day 150, re-challenged treated mice or C57BL/6J naive mice were sacrificed to sort CD8+ T cells. 2.105 CD8+ T cells were adoptively transferred in other C57BL6J naive mice. Then mice were injected s.c with 2.105 LLC (b). Spaghetti plots of LLC tumor growth of vehicle and anti-PD-1 treated mice or HEI3090 and anti-PD-1 treated mice (c). Each curve represents one mouse. Survival curves of mice treated with vehicle or HEI3090 and isotype control or vehicle or HEI3090 and anti-PD-1 (d). Tumor growth and survival curves after re-challenge of cured mice treated with HEI3090 and anti-PD-1 or age matched C57BL/6J mice (e,f). Tumor growth after i.v. injection of CD8+ T cells from naïve mice or re-challenged treated mice (g).

Entries after “also recorded” stand apart in the source; their conditions may differ.

In the case of `O=C(NCc1ccc(Cl)cc1Cl)[C@@H]1CCC(=O)N1C(=O)Nc1ccc(Cl)c(Cl)c1` [HEI2328, (S)—N^2-(2,4-Dichlorobenzyl)-N^1-(3,4-dichlorophenyl)-5-oxopyrrolidine-1,2-dicarboxamide], the Topro3 positive cells on mouse P2RX7 (mP2RX7) (HEI2328 50 μM combined with BzATP 500 μM, 1 h, mP2RX7 cells) came to 61%. Also, the “channel activity (Fluo4-AM)” value on mouse P2RX7 (mP2RX7) (combined with BzATP 500 μM, 1 h stimulation) was “did not impact channel activity”. The “Topro3 entry (large pore opening)” value on mouse P2RX7 (mP2RX7) (compound 50 μM, BzATP 500 μM, 1 h, mP2RX7 HEK cells) is given as “increase Topro3 entry only in presence of BzATP; also recorded: most active”. For the same compound, the “channel activity and large pore opening, compound alone” value on mouse P2RX7 (mP2RX7) (used alone (no BzATP) on Mock and mP2RX7 cells, 50 μM) is recorded as “did induce neither channel activity nor large pore opening”.

For the compound `O=C(NCc1ccc(Cl)cc1Cl)[C@@H]1CCC(=O)N1C(=O)Nc1ccc(Cl)nc1` [HEI3090, (S)—N^1-(6-Chloropyridin-3-yl)-N^2-(2,4-dichlorobenzyl)-5-oxopyrrolidine-1,2-dicarboxamide], the “induction of immunogenic cell death (ICD)” value in the experiment on B16-F10 cells is “does not promote ICD”. In addition, the dead cells result with B16F10 cells was “up to 80%”. For the same compound, the “cure of tumor bearing mice” value in the experiment with LLC (HEI3090 1.5 mg/kg ip day 1-18 combined with anti PD-1 200 μg ip) is “cured mice bearing tumors”. Besides, the “memory T cell response” value with LLC (HEI3090 combined with anti PD-1, re-challenge of cured mice) is “set up a memory T cell response”.

Source of the values: patent US11919854B2, “P2RX7 modulators in therapy” (Centre national de la recherche scientifique, priority 2018, dated 2024).
